From patent US20020142457A1, “Cell having the potentiality of differentiation into cardiomyocytes” (priority 1999, published 2002)

Tests used:
[1] = test system: Bone marrow cells (BMSC); test: Induction of adipocytes from BMSC by PPAR-γ receptor agonists; format: cell-based, mouse
Procedure: Bone marrow cells (BMSC) having the potential to differentiate into cardiomyocytes can be induced to differentiate not only into cardiomyocytes but also into adipocytes. To control the differentiation into adipocytes, the conditions for the induction of the differentiation were examined. First, the expression of PPAR-y receptors was analyzed by the quantitative PCR method. […] Subsequently, PPAR-γ receptor agonists, pioglitazone and troglitazone, were added at various concentrations to bone marrow cells (BMSC) having the potential to differentiate into cardiomyocytes.

[2] = test system: mouse bone marrow-derived pluripotent stem cells (BMSC); test: Induction of differentiation of BMSC into cardiomyocytes using DMSO; format: cell-based; conditions: then 6 weeks
Procedure: According to the method described in Example 1, mouse bone marrow-derived pluripotent stem cells (BMSC) having the potential to differentiate into cardiomyocytes were obtained and cultured for 24 hours in the presence of 10 μM DMSO instead of 3 μM 5-aza-C. The medium was replaced with IMDM, followed by culturing for 6 weeks.

[3] = test system: mouse bone marrow-derived pluripotent stem cells (BMSC); test: Quantitative PCR of genes expressed in myotubes from BMSC; format: cell-based; conditions: with 5-aza-C 3 μM; for expression of cTnI or ANP specifically relating to a myocardium: PDGF 10 ng/ml, retinoic acid 10^−9 M
Procedure: (§1) RNAs were collected from the myotubes thus obtained. And genes expressed in the myotubes were analyzed with quantitative PCR analysis using the synthetic oligonucleotides represented by SEQ ID NOS:71 to 78. As a result, PDGF or retinoic acid promoted the expression of MyoD and fTnI genes relating to a skeletal muscle but not cTnI or ANP specifically relating to a myocardium. Next, mouse bone marrow-derived pluripotent stem cells (BMSC) having the potential to differentiate into cardiomyocytes were inoculated in a 60-mm culture dish at a density of 2×10^4 cells/ml and cultured using an incubator at 33° C. under 5% of CO2.
RNAs were collected from the myotubes thus obtained. And genes expressed in the myotubes were analyzed with quantitative PCR using the synthetic oligonucleotides represented by SEQ ID NOS:71 to 78. As a result, the FGF-8, ET-1, midkine and BMP4 each individually promoted the expression of cTnI and ANP gene which are myocardium-specific genes.

[4] = test system: KUM2 cells; test: Induction of spontaneously beating cardiomyocytes in KUM2 cells by 5-aza-C; format: cell-based, mouse; conditions: 5-aza-C 3 μM for 24 hours
Procedure: After culturing for about 4 months under the above conditions, immortalized cells were selected and diluted to establish 192 cell lines respectively derived from single cells (hereinafter referred to as bone marrow-derived first passage immortalized cell lines). To each of these clone-derived cell lines was added 5-aza-C at a final concentration of 3 μM, and the cells were cultured for 24 hours. After culturing for further 2 weeks in IMDM, clones that produced spontaneously beating cells were selected. […] One of three cell lines is KUM2. Hereinafter, unless otherwise indicated, the bone marrow cell KUM2 and mouse bone marrow-derived pluripotent stem cells (BMSC) described below were cultured in IMDM supplemented with 20% FCS, […] penicillin, 250 ng/ml streptomycin and […] amphotericin at 33° C. using a 5% CO2-incubator. When the KUM2 cells were exposed to 5-aza-C having a final concentration of 3 μM for 24 hours, nonspecific differentiation into spontaneously beating cardiomyocytes was induced. However, the frequency is very low (one or less per 10^7 cells).

[5] = test system: mouse bone marrow-derived pluripotent stem cells (BMSC); test: Differentiation of BMSC into myotubes, phase-contrast microscope; format: cell-based; conditions: 5-aza-C 3 μM in all dishes
Procedure: The mouse bone marrow-derived pluripotent stem cells (BMSC) having the potential to differentiate into cardiomyocytes were plated into 60-mm culture dishes and 60 mm fibronectin-coated dishes (Becton Dickinson) at a density of 2×10^4 cells/ml and cultured at 33° C. in a 5% CO2-incubator.
On the next day, 5-aza-C was added to each culture medium in a final concentration of 3 μM, followed by culturing with the following 3 different treatments, with addition of PDGF (culture dish A), both PDGF and retinoic acid (culture dish B) or without addition of any compound (culture dish C) (final concentration: PDGF, 10 ng/ml; retinoic acid, 10^−9 M).
On the next day, the medium was replaced with a fresh medium to remove 5-aza-C therefrom. Then, PDGF was added to the culture dish A until the final concentration of PDGF came to be 10 ng/ml, while PDGF and retinoic acid were added to the culture dish B until the final concentrations of PDGF and retinoic acid came to be 10 ng/ml and 10^−9 M, respectively. Two and four days thereafter, the medium was replaced and the PDGF or retinoic acid was further added.
As a result, about 30% of the cells in the culture dish containing 5-aza-C alone differentiated into myotubes, while about 40% of the cells in the culture dish containing PDGF and about 50% of the cells in the culture dish containing PDGF together with retinoic acid differentiated into myotubes. In the three groups of the fibronectin-coated dishes, the ratio of the cells differentiated into myotubes was about 10% higher than in the three groups of the culture dishes.
as §1
On the next day, 5-aza-C was added to the liquid culture medium to give a final concentration of 3 μM. Furthermore, five treatments differing from each other were performed by adding FGF-8 to give a final concentration of 10 ng/ml (culture dish D); adding ET-1 to give a final concentration of 10 ng/ml (culture dish E); adding a midkine to give a final concentration of 10 ng/ml (Culture dish F); adding BMP4 to give a final concentration of 10 ng/ml (culture dish G); and adding no compound (culture dish H), followed by culturing.
On the next day, the medium was replaced by a fresh medium to eliminate 5-aza-C therefrom. Then, FGF-8 was added to the culture dish D to give a final concentration of 10 ng/ml; ET-1 was added to the culture dish E to give a final concentration of 10 ng/ml; the midkine was added to the culture dish F to give a final concentration of 10 ng/ml; and BMP4 was added to the culture dish G to give a final concentration of 10 ng/ml, followed by culturing. Two and four days thereafter, the medium was replaced and the FGF-8, ET-1, midkine or BMP4 was further added.
As a result, about 30% of the cells in the culture dish containing 5-aza-C alone differentiated into myotubes, while about 50% of the cells in the culture dishes containing FGF-8, ET-1, midkine or BMP4 differentiated into myotubes respectively.

[6] = test system: Nkx2.5/Csx and GATA4 co-forced expressing bone marrow cells (BMSC-Nkx2.5-GATA4); test: Differentiation of BMSC-Nkx2.5-GATA4 with cytokines, phase-contrast microscope; format: cell-based, mouse; conditions: BMSC-Nkx2.5-GATA4, 5-aza-C 3 μM in all dishes; cytokine 10 ng/ml; four weeks
Procedure: The Nkx2.5/Csx and GATA4 co-forced expressing bone marrow cells (BMSC-Nkx2.5-GATA4) having the potential to differentiate into cardiomyocytes were plated into a 60-mm culture dish at a density of 2×10^4 cells/ml and cultured at 33° C. in a 5% CO2-incubator.
On the next day, 5-aza-C was added to the culture medium to give a final concentration of 3 μM. Furthermore, 5 treatments differing from each other were carried out by adding FGF-8 to give a final concentration of 10 ng/ml (culture dish I); adding ET-1 to give a final concentration of 10 ng/ml (culture dish J); adding midkine to give a final concentration of 10 ng/ml (culture dish K); adding BMP4 to give a final concentration of 10 ng/ml (culture dish L); and adding nothing (culture dish M), followed by culturing.
On the next day, the medium was replaced with a fresh medium to eliminate 5-aza-C. Then, FGF-8 was added to the culture dish I to give a final concentration of 10 ng/ml; ET-1 was added to the culture dish J to give a final concentration of 10 ng/ml; midkine was added to the culture dish K to give a final concentration of 10 ng/ml; and BMP4 was added to the culture dish L to give a final concentration of 10 ng/ml, followed by culturing. Two and four days thereafter, furthermore, the medium was replaced, and the FGF-8, ET-1, midkine or BMP4 was added.
As a result, about 30% of the cells in the culture dish containing 5-aza-C alone were converted into myotubes, while about 50% of the cells in the culture dishes containing FGF-8, ET-1, midkine or BMP4 differentiated into myotubes respectively. On the other hand, the addition of FGF-8, ET-1, midkine or BMP4 caused no increase in beating cardiomyocytes.

[7] = culture dishes, PDGF 10 ng/ml, retinoic acid 10^−9 M, four weeks

Cc1c(C)c2c(c(C)c1O)CCC(C)(COc1ccc(CC3SC(=O)NC3=O)cc1)O2 (stereo not drawn) [troglitazone]
BMSCs differentiated into adipocytes ([1]; 0.4 μM): about 50%
BMSCs differentiated into adipocytes ([1]; 2 μM): ~100%

C[S+](C)[O-] [DMSO, dimethyl sulfoxide]
differentiation into beating cardiomyocytes ([2]; 10 μM DMSO for 24 hours instead of 5-aza-C): induced to differentiate into beating cardiomyocytes
expression of Nkx2.5/Csx and GATA4 genes in produced cells ([2]; 10 μM DMSO for 24 hours): expressed

CC1=C(/C=C/C(C)=C/C=C/C(C)=C/C(=O)O)C(C)(C)CCC1 [retinoic acid, all trans retinoic acid, reference compound]
expression of MyoD and fTnI genes relating to a skeletal muscle [3]: promoted
expression of cTnI or ANP specifically relating to a myocardium [3]: not

Nc1ncn([C@@H]2O[C@H](CO)[C@@H](O)[C@H]2O)c(=O)n1 [5-aza-C, 5-azacytidine, reference compound]
frequency of differentiation into spontaneously beating cardiomyocytes [4]: one or less
cells differentiated into myotubes ([5]; cytokine 10 ng/ml, four weeks after addition of 5-aza-C): about 30%
cells differentiated into myotubes [5, 7]: about 30%
cells differentiated into myotubes [6]: about 30%

PDGF
cells differentiated into myotubes [5, 7]: about 40%
expression of MyoD and fTnI genes relating to a skeletal muscle [3]: promoted
expression of cTnI or ANP specifically relating to a myocardium [3]: not

CCc1ccc(CCOc2ccc(CC3SC(=O)NC3=O)cc2)nc1 (stereo not drawn) [pioglitazone]
BMSCs differentiated into adipocytes ([1]; 0.4 μM): about 50%
BMSCs differentiated into adipocytes ([1]; 2 μM): ~100%
